Like-named read-outs stand apart in the source and are kept apart here.
Columns and labels:
mouse P23H opsin = molecular target: T1, mouse P23H opsin (Mus musculus, UniProt P15409, P23H); assay: High-content imaging analysis of P23H opsin immunostaining in NIH3T3-(P23H opsin/GFP) cells; format: cell-based
T1 construct: expressed in transfected cells
Procedure: To characterize the effect of active compounds on the localization of P23H-mutant opsin in mammalian cells, an image-based assay was used with cells immunostained for WT or P23H-mutant opsin protein[18]. Briefly, NIH3T3-(P23H opsin/GFP) or NIH3T3-(WT-opsin/GFP) cells were seeded at 5000 cells per well in a 384-well cell-carrier plate (PerkinElmer) and incubated at 37 °C with 5% CO2 for 2 h. Cells were treated with compounds as described for the β-Gal fragment complementation assay and incubated in assay medium for 24 h. The assay medium then was aspirated, and cells were fixed with 4% paraformaldehyde at 20 µL per well for 20 min at RT. Cells were immunostained in one of two ways: cell membranes were either permeabilized with 0.1% Triton X-100 for 15 min or left intact and then were incubated with 10% goat serum (Life Technologies). To detect opsin on the cell plasma membrane only, intact cells were immunostained with 20 µL per well of 20 µg mL^−1 B6-30 anti-rhodopsin antibody that recognizes the N-terminal epitope on the extracellular side of rhodopsin. To detect total opsin, cells were permeabilized with Triton X-100 and immunostained with 50 µg mL^−1 1D4 anti-rhodopsin antibody specific for the C-terminal epitope on the intracellular side of rhodopsin. Opsin immunostaining was visualized by incubating cells with 5 µg mL^−1 Cy3-conjugated goat anti-mouse IgG antibody. Three washes with phosphate-buffered saline (PBS: 10 mM Na2HPO4, 1.8 mM KH2PO4, pH 7.4, 137 mM NaCl, and 2.7 mM KCl) were performed between each step of incubation with antibody. In the last wash with PBS, DAPI was added to each well at 300 nM. Fluorescence images were obtained with the Operetta High Content Imaging System (PerkinElmer) using a ×20 long objective. Five fields were taken of each well for cell images using three channels for fluorescence: GFP (100 ms), Cy3 (300 ms), and DAPI (50 ms). Images were analyzed with Acapella software from the Columbus data storage and analysis system (PerkinElmer)[18]. For cells immunostained with opsin on the non-permeabilized cell membrane only, an average of total fluorescence intensity of Cy3 per cell was used to quantify opsin in each well of the 384-well plate. For cells immunostained with opsin in permeabilized whole cells, an average ratio of Cy3 intensity on the cell plasma membrane (PM) to that of the entire cell (opsin ratio PM-to-total) was calculated for each well of a 384-well plate to quantify opsin transport to the plasma membrane. The plasma membrane was defined within ± 5% of the cell border.

NIH3T3 cells = assay: Cell number in high-content imaging of NIH3T3 cells; format: cell-based, mouse
Procedure: To characterize the effect of active compounds on the localization of P23H-mutant opsin in mammalian cells, an image-based assay was used with cells immunostained for WT or P23H-mutant opsin protein[18]. Briefly, NIH3T3-(P23H opsin/GFP) or NIH3T3-(WT-opsin/GFP) cells were seeded at 5000 cells per well in a 384-well cell-carrier plate (PerkinElmer) and incubated at 37 °C with 5% CO2 for 2 h. Cells were treated with compounds as described for the β-Gal fragment complementation assay and incubated in assay medium for 24 h. The assay medium then was aspirated, and cells were fixed with 4% paraformaldehyde at 20 µL per well for 20 min at RT. […] Fluorescence images were obtained with the Operetta High Content Imaging System (PerkinElmer) using a ×20 long objective. Five fields were taken of each well for cell images using three channels for fluorescence: GFP (100 ms), Cy3 (300 ms), and DAPI (50 ms). Images were analyzed with Acapella software from the Columbus data storage and analysis system (PerkinElmer)[18]. For cells immunostained with opsin on the non-permeabilized cell membrane only, an average of total fluorescence intensity of Cy3 per cell was used to quantify opsin in each well of the 384-well plate. […]

rod opsin = molecular target: T2, rod opsin (Mus musculus, UniProt P15409); assay: cAMP quantification assay in NIH3T3-(WT-opsin/GFP) cells with forskolin; format: cell-based
T2 construct: expressed in transfected cells
Procedure: NIH3T3-(Opsin/GFP) and NIH3T3-(GFP) were plated in two 96-well plates at a density of 50,000 cells per well in 100 µL of DMEM medium containing 10% FBS and antibiotics. After 24 h, cells were washed with Krebs Ringer bicarbonate buffer containing glucose (KRBG), and incubated with KRBG buffer containing 100 µM cAMP specific phosphodiesterase inhibitor, Ro 20–1724 (Tocris, UK) at RT for 10 min. […] While one plate then was wrapped with aluminum foil, the second plate was exposed to regular room light. Both plates were kept in a cell culture incubator for 15 min at 37 °C in 5% CO2. Levels of accumulated cAMP were detected with the Catchpoint cAMP fluorescent assay kit (Molecular Devices, Sunnyvale, CA USA) and the fluorescence with excitation/emission at 530/590 nm was read with a Flexstation3 plate reader (Molecular Devices) as described in the manufacturer’s protocol.

P23H opsin = molecular target: T3, P23H opsin (Mus musculus, UniProt P15409, P23H); assay: Immunoblot of P23H opsin glycosylation in NIH3T3 cell lysates; format: cell-based; set-up: key to Improved glycosylation: n = no; y = yes; details: for Improved glycosylation: P23H opsin; for effect on glycosylation of P23H opsin (in words): immunoblot, PNGaseF, 10 µM YC-001, 5 µM 9-cis-retinal, 10 µM scriptaid
T3 construct: expressed in transfected cells
Procedure: NIH3T3-(P23H opsin/GFP) or NIH3T3-(WT-opsin/GFP) cells were seeded in a 48-well plate (Corning Costar) at 3.2 × 10^5 cells per well and incubated at 37 °C with 5% CO2 for 2 h. One hundred-µL of assay medium containing a compound at 5× its final concentration was added to each well. The plate was gently shaken for 5 s before further incubation at 37 °C with 5% CO2 for 24 h. The assay medium then was aspirated, and cells were lysed with 100 µL per well PBS containing 0.1% Triton X-100 and complete protease inhibitor cocktail (Roche, Basel, Switzerland) followed by sonication for 3 s. Protein concentrations were determined with the Bradford assay. For PNGaseF catalyzed deglycosylation, 3 µL of PNGaseF (1500 U, NEB) was added to the cell lysate and the mixture was incubated at room temperature for 1 h before immunoblotting. For NIH3T3-(P23H opsin/GFP) cells, 15 µg of total protein were loaded per well onto an SDS-polyacrylamide gel; whereas for NIH3T3-(WT-opsin/GFP) cells, 5 µg of total protein was loaded per well. Opsin protein was immunostained with 0.2 μg mL^−1 horseradish peroxidase-conjugated 1D4 anti-rhodopsin antibody. Band intensities were measured with ImageJ software (http://imagej.nih.gov/ij/; National the Institutes of Health, Bethesda, MD, USA) and normalized to a glyceraldehyde 3-phosphate dehydrogenase (GAPDH) loading control. Full scans of immunoblotted membranes are shown in Supplementary Fig. 8.

bovine opsin = molecular target: T4, bovine opsin (Bos taurus, UniProt P02699); assay: Isorhodopsin pigment regeneration in ROS disc membranes (absorbance at 487 nm); format: biochemical; details: for competition with 9-cis-retinal in the chromophore-binding pocket: added simultaneously or sequentially with 9-cis-retinal
T4 construct: ROS membranes were isolated from bovine retinas under dim red light; from tissue; host or cells: bovine retina, rod outer segment (ROS) disc membranes, bleached with hydroxylamine
T4 sequence (P02699 whole entry): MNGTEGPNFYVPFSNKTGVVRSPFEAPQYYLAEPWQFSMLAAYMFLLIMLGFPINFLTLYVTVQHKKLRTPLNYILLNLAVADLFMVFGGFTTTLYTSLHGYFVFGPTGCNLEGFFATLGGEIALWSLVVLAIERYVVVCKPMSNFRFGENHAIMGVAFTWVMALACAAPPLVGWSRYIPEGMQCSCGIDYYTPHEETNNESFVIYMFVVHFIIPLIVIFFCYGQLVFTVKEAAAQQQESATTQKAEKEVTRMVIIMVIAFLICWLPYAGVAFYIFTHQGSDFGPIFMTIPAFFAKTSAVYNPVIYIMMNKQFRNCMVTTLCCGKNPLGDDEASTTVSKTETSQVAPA
Procedure: ROS membranes containing opsin were suspended in buffer composed of 20 mM BTP, pH 7.5, and 100 mM NaCl at a final concentration of 2.5 µM. […] Membranes then were solubilized with 20 mM DDM for 10 min at RT and UV–visible spectra of these samples were measured. To follow the kinetics of isorhodopsin regeneration, opsin membranes were treated with 0, 20, or 60 µM YC-001 for 15 min at RT. […] UV–visible spectra of the samples were measured every 2 min until 2 h of reaction time at RT. Each condition was repeated three times. The time course of isorhodopsin regeneration was fitted by a second-order exponential decay and apparent half-lives were obtained at the time when reaction reached half of the end-point product.
Alternatively, opsin incubated with the above ligands was purified by 1D4-immunoaffinity chromatography. […] After washing, opsin samples were eluted by addition of 1D4 peptide ([…]) to the above buffer and their spectra were measured with a UV–visible spectrophotometer.
To test whether YC-001 stabilizes rod opsin, opsin samples (2.5 µM) were incubated with or without 10 µM YC-001 for 15 min, followed by solubilization in 20 mM DDM. […] UV–visible spectra of these samples then were measured.

[1] = cell-surface immunostaining, non-permeabilized, Fig. 2j, read-out: EC50, opsin on the plasma membrane (Opsin INT)
[2] = ratio of P23H rod opsin fluorescence on plasma membrane to whole cell
[3] = ratio of P23H rod opsin fluorescence on plasma membrane to whole cell, read-out: Immunostaining HCS MEM-Total ratio EC50

Immunostaining HCS MEM-Total ratio Max (fit) (mouse P23H opsin; [2]) | Improved glycosylation (P23H opsin) | effect on glycosylation of P23H opsin (in words) (P23H opsin) | SMILES | A1 (low plateau), Opsin INT (mouse P23H opsin; Fig. 2j) | A2 (high plateau), Opsin INT (mouse P23H opsin; Fig. 2j) | A1 (low plateau), Opsin ratio PM-to-total (mouse P23H opsin; Fig. 2l) | A2 (high plateau), Opsin ratio PM-to-total (mouse P23H opsin; Fig. 2l) | A1 (low plateau), Opsin ratio ER-to-total (mouse P23H opsin; Fig. 2n) | A2 (high plateau), Opsin ratio ER-to-total (mouse P23H opsin; Fig. 2n) | EC50 (mouse P23H opsin; [1]) | competition with 9-cis-retinal in the chromophore-binding pocket (bovine opsin) | EC50 (mouse P23H opsin; [3]) | also measured
0.019 | y | improvement of glycosylation | CC1=C(/C=C/C(C)=C\C=C\C(C)=C\C=O)C(C)(C)CCC1 [9-cis-retinal, reference compound] | 219 | 275 | 0.167 | 0.186 | 0.240 | 0.255 | 377 nM |  |  | EC50 (mouse P23H opsin; whole-cell immunostaining, Fig. 2l, read-out: EC50, Opsin ratio PM-to-total): 1210 nM; concentration that euthanized most cells (NIH3T3 cells; 24 h treatment): higher than 10 µM; fold increase in the EC50 of 9-cis-retinal (rod opsin; 40 μM YC-001 co-treatment vs 9-cis-retinal alone): 3 fold; EC50 (rod opsin; 9-cis-retinal alone, under light, read-out: EC50, cAMP levels): 75.7 nM
0.070 | n | does not affect the glycosylation | O=C(CCCCCN1C(=O)c2cccc3cccc(c23)C1=O)NO [Scriptaid, reference compound] |  |  |  |  |  |  |  | does not compete with 9-cis-retinal | 380 nM | 

SMILES | Immunostaining HCS MEM-Total ratio Max (fit) (mouse P23H opsin; [2]) | Improved glycosylation (P23H opsin) | effect on glycosylation of P23H opsin (in words) (P23H opsin) | A1 (low plateau), Opsin INT (mouse P23H opsin; Fig. 2j) | A2 (high plateau), Opsin INT (mouse P23H opsin; Fig. 2j) | A1 (low plateau), Opsin ratio PM-to-total (mouse P23H opsin; Fig. 2l) | A2 (high plateau), Opsin ratio PM-to-total (mouse P23H opsin; Fig. 2l) | A1 (low plateau), Opsin ratio ER-to-total (mouse P23H opsin; Fig. 2n) | A2 (high plateau), Opsin ratio ER-to-total (mouse P23H opsin; Fig. 2n) | EC50 (mouse P23H opsin; [1]) | competition with 9-cis-retinal in the chromophore-binding pocket (bovine opsin) | EC50 (mouse P23H opsin; [3]) | also measured
O=C1OCC(c2ccc(Cl)s2)=C1c1cccs1 [YC-001] | 0.030 | y | improvement of glycosylation | 218 | 270 | 0.172 | 0.202 | 0.236 | 0.248 | 3220 nM | competing with 9-cis-retinal in a short timeframe | 2750 nM | half-life of rod opsin aging at RT (bovine opsin; 10 µM YC-001 vs opsin alone, 0-6 h): significantly longer half-life; total amount of regenerated isorhodopsin pigment at the end of the reaction (bovine opsin; increasing YC-001, sequential 9-cis-retinal): did not affect; reversibility of interaction with opsin (bovine opsin; opsin/isorhodopsin purification after treatment): reversible; IC50 (bovine opsin; read-out: IC50, regenerated isorhodopsin): 11400 nM; EC50 (mouse P23H opsin; whole-cell immunostaining, Fig. 2n, read-out: EC50, Opsin ratio ER-to-total): 2140 nM; effect on cell number (NIH3T3 cells; up to 40 µM): did not affect cell number; EC50 (rod opsin; YC-001 alone, dark or light, read-out: EC50, increase in cAMP levels): 8220 nM; EC50 (rod opsin; YC-001 with 1 μM 9-cis-retinal, under light, read-out: EC50, increase in cAMP levels): 29900 nM

Reference: paper PMC5958115, “A novel small molecule chaperone of rod opsin and its potential therapy for retinal degeneration” (Nature Communications, 2018)
